Laboratory results published in patent publication US20250257325A1, “SYSTEM AND COMPOSITION OF R[…] FOR P[…] VIRUSES AND METHODS THEREOF” (The University of Hong Kong, priority 2024, published 2025).
“Also recorded” adds a separate entry of the source.

Legend:
[1] = system: HRV-A1; test: Antiviral inhibition in airway organoids infected with HRV-A1 (viral load by RT-qPCR); type: cell-based, human rhinovirus A; settings: human airway organoids, 1 μM Rupintrivir or 3 μM Itraconazole, 1000 viral gene copy/cell, compared with HRV-C
Method: (§1) We then performed an antibody-blocking experiment in nasal organoids to assess the role of CDHR3 on HRV-C replication. We examined HRV-C replication in the nasal organoids in the presence of two a-CDHR3 antibodies or an isotypic IgG. […] Itraconazole^32, a repurposed antifungal drug with documented efficacy against rhinoviruses, was also tested.
(§2) A total of 9 HRV-C positive archived nasopharyngeal specimens from clinical patients were used for the study. Mature human airway and nasal organoids growing on 24-transwell inserts were washed twice with the basal medium (Advanced DMEM/F-12 (Gibco) supplemented with 1% HEPES, 1% GlutaMAX, and 1% Penicillin/Streptomycin), followed by virus inoculation with the indicated viral gene copy and subsequent incubation in the PD medium (PneumaCult-ALI medium (STEMCELL Technologies) supplemented with 10 μM DAPT and 10 μM Y27632), at 37° C. for 4 h. After incubation, the airway or nasal organoids were washed 3 times with the basal medium to remove residual inoculum. The apical and basolateral chambers were replenished with 300 μl and 500 μl PD medium, respectively. As for CYT387 treatment, airway and nasal organoids were pre-incubated in the PD medium with 1 μg/ml CYT387 (Invivogen, inh-cy87) or DMSO overnight. […]

[2] = system: HRV-C3; test: Antiviral inhibition in airway organoids infected with HRV-C3 (viral load by RT-qPCR); type: cell-based, human rhinovirus C; settings: human airway organoids, 1 μM Rupintrivir or 3 μM Itraconazole, 1000 viral gene copy/cell, compared with HRV-A
Method: as §1, §2

[3] = system: HRV-C3; test: HRV-C3 serial passage in nasal organoids with CYT387 or DMSO (viral load by RT-qPCR); type: cell-based, human rhinovirus C; settings: human nasal organoids, CYT387 vs DMSO, 100 viral gene copy/cell, 96 h.p.i.
Method: We inoculated nasal organoids with the HRV-C3+ medium collected from organoids infected with an HRV-C3+ clinical specimen in the presence of CYT or DMSO and collected culture media at 96 h.p.i. Due to the high viral load in DMSO-treated nasal organoids in a preliminary experiment, we changed the experimental design. Briefly, the virus-containing media from CYT- and DMSO-treated organoids were brought forward to the next round of infection with the CYT and DMSO treatment, respectively (FIG. 3A). […] Nonetheless, in the absence of CYT, nasal organoids derived from two different donors sustained four consecutive passages of HRV-C3 (FIG. 3B). We also tested HRV-C11+ (FIG. 3C) and HRV-C15+ (FIG. 3D) medium (the medium collected from organoids infected with an HRV-C11+ and HRV-C15+ clinical specimen respectively) in nasal organoids derived from another donor. The two subtypes of HRV-C were serially passaged three times with high viral loads, and more passages could be furthered, if necessary. Overall, nasal organoids per se sustained serial propagation of HRV-C without any intervention. […] HRV-C virions released from the nasal organoids were concentrated and applied to transmission electron microscope (TEM) examination. Virion particles sized around 30 nm, and empty capsid particles were readily discernible (FIG. 3F). […]

[4] = system: HRV-C3; test: HRV-C3 replication and serial passage in airway organoids with CYT387 or DMSO (viral load by RT-qPCR); type: cell-based, human rhinovirus C; settings: human airway organoids; for serial HRV-C propagation (P1-P5) and viral load versus DMSO-treated organoids: 1 μg/ml CYT387, media harvested at 96 h.p.i.
Method: We examined HRV-C replication in airway organoids in the presence or absence of CYT387 (FIG. 2A). Briefly, we inoculated an HRV-C3+ medium (medium collected from organoids infected by an HRV-C3+ clinical specimen) onto the airway organoids pre-treated with 1 μg/ml CYT387 or DMSO. The infected organoids were further incubated with CYT387 (CYT thereafter) or DMSO for 96 hours, after which we harvested the culture medium (P1) to examine viral growth. P1 media from CYT- and mock-treated organoids were brought forward to P2 passage in the presence of CYT and DMSO, respectively (FIG. 2A). […] In the following P3 passage, we had to inoculate CYT-treated P2 media onto airway organoids, in which we continued CYT or DMSO treatment to verify the enhancement effect of CYT. This CYT-treated media inoculation, followed by CYT or DMSO treatment, was repeated in the subsequent P4 and P5 passage.
A total of 9 HRV-C positive archived nasopharyngeal specimens from clinical patients were used for the study. Mature human airway and nasal organoids growing on 24-transwell inserts were washed twice with the basal medium (Advanced DMEM/F-12 (Gibco) supplemented with 1% HEPES, 1% GlutaMAX, and 1% Penicillin/Streptomycin), followed by virus inoculation with the indicated viral gene copy and subsequent incubation in the PD medium (PneumaCult-ALI medium (STEMCELL Technologies) supplemented with 10 μM DAPT and 10 μM Y27632), at 37° C. for 4 h. After incubation, the airway or nasal organoids were washed 3 times with the basal medium to remove residual inoculum. The apical and basolateral chambers were replenished with 300 μl and 500 μl PD medium, respectively. As for CYT387 treatment, airway and nasal organoids were pre-incubated in the PD medium with 1 μg/ml CYT387 (Invivogen, inh-cy87) or DMSO overnight. After virus inoculation, PD medium supplemented with 1 μg/ml CYT387 or DMSO was dispersed into apical and basolateral chambers to maintain the organoids. To assess the effect of temperature on viral growth, we infected nasal organoids with HRV-C3 and HRV-A1 at 100 viral gene copy/cell and maintained the organoids at 33° C. or 37° C. […] Culture media were harvested from the infected organoids at the indicated h.p.i. to detect viral replication. To investigate the antiviral effect of inhibitors on HRV-C replication, organoids were inoculated with HRV-A1 or HRV-C3 at 1000 viral gene copy/cell and incubated with the PD medium in the presence of 1 μM Rupintrivir, 3 μM Itraconazole, or DMSO. The culture media were collected at the indicated h.p.i. for viral load detection. […]

SMILES: CCOC(=O)/C=C/[C@H](C[C@@H]1CCNC1=O)NC(=O)[C@@H](CC(=O)[C@@H](NC(=O)c1cc(C)on1)C(C)C)Cc1ccc(F)cc1 [Rupintrivir]
- inhibitory effect on HRV-A (relative viral load versus DMSO-treated organoids) [1]: more prominent inhibitory effect of both drugs on HRV-C than HRV-A
- inhibitory effect on HRV-C (relative viral load versus DMSO-treated organoids) [2]: more prominent inhibitory effect

SMILES: N#CCNC(=O)c1ccc(-c2ccnc(Nc3ccc(N4CCOCC4)cc3)n2)cc1 [CYT387, Momelotinib]
- viral growth [3]: significantly boosted viral growth
- serial HRV-C propagation (P1-P5) and viral load versus DMSO-treated organoids [4]: enabled serial propagation
- serial HRV-C propagation (P1-P5) and viral load versus DMSO-treated organoids ([4]; listed as CYT): consecutively passaged five times; also recorded: higher viral load
- viral replication in P2 passage ([4]; 1 μg/ml CYT387, no viral growth in DMSO-treated organoids): sustained robust viral replication
- viral load in P1 media ([4]; 1 μg/ml CYT387 vs DMSO, first passage, 96 h.p.i.): elevated viral load
